From ChEMBL document CHEMBL5346887, “Design and evaluation of dibenzoazepine-tetrahydroisoquinoline hybrids as potential P-glycoprotein inhibitors against multidrug resistant K562/A02 cells” (Eur J Med Chem, 2023)
Activity calls are given as the source filed them. The rule behind the calls is not given here.

Legend:
K562/A02 [1] = assay: Cytotoxicity against human K562/A02 cells assessed as inhibition of cell growth incubated for 72 hrs by CCK-8 assay; format: functional, cell-based; settings: K562/A02, 72 h
K562/A02 [2] = assay: Reversal fold, ratio of ADR IC50 to test compound IC50 for reversal of multi-drug resistance in human K562/A02 cells; format: functional
K562/A02 [3] = assay: Reversal fold, ratio of ADR IC50 to test compound IC50 for reversal of multi-drug resistance in human K562/A02 cells at 0.4 uM; format: functional
K562/A02 [4] = assay: Antitumor activity against human K562/A02 cells xenografted in BALB/c nude mouse assessed as reduction in tumor volume at 2 mg/kg, ip measured upto 14 days by vernier caliper analysis; format: functional; settings: time <= 14 day
K562 [5] = assay: cells; settings: Homo sapiens, K562, 72 h
Description: Cytotoxicity against human K562 cells assessed as inhibition of cell growth incubated for 72 hrs by CCK-8 assay

K562/A02 [6] = assay: Reversal of adriamycin resistance in human K562/A02 cells incubated for 48 hrs; format: functional, cell-based; settings: K562/A02, 48 h
K562/A02 [7] = assay: Reversal of multi-drug resistance in human K562/A02 cells increase in intracellular Rh123 level incubated for 30 mins by flow cytometry analysis; format: functional, cell-based; settings: dose 0.5-8 µM
K562 [8] = assay: Reversal of multi-drug resistance in human K562 cells increase in intracellular Rh123 level at 0.5 to 8 uM incubated for 30 mins by flow cytometry analysis; format: functional, cell-based; settings: dose 0.5-8 µM
K562/A02 [9] = assay: Effect on P-gp expression in human K562/A02 cells at 0.5 to 8 uM measured after 24 hrs by Western blot analysis; format: functional, cell-based; settings: dose 0.5-8 µM
[10] = biological target: ATP-dependent translocase ABCB1 (Homo sapiens, UniProt P08183); assay: Binding affinity to p-gp in human K562/A02 cells assessed as increase in thermal stabilization at 50 uM incubated for 1 hr by CETSA analysis; format: cell-based; settings: k562/a02, 1 h
ATP-dependent translocase ABCB1, sequence (P08183 whole entry): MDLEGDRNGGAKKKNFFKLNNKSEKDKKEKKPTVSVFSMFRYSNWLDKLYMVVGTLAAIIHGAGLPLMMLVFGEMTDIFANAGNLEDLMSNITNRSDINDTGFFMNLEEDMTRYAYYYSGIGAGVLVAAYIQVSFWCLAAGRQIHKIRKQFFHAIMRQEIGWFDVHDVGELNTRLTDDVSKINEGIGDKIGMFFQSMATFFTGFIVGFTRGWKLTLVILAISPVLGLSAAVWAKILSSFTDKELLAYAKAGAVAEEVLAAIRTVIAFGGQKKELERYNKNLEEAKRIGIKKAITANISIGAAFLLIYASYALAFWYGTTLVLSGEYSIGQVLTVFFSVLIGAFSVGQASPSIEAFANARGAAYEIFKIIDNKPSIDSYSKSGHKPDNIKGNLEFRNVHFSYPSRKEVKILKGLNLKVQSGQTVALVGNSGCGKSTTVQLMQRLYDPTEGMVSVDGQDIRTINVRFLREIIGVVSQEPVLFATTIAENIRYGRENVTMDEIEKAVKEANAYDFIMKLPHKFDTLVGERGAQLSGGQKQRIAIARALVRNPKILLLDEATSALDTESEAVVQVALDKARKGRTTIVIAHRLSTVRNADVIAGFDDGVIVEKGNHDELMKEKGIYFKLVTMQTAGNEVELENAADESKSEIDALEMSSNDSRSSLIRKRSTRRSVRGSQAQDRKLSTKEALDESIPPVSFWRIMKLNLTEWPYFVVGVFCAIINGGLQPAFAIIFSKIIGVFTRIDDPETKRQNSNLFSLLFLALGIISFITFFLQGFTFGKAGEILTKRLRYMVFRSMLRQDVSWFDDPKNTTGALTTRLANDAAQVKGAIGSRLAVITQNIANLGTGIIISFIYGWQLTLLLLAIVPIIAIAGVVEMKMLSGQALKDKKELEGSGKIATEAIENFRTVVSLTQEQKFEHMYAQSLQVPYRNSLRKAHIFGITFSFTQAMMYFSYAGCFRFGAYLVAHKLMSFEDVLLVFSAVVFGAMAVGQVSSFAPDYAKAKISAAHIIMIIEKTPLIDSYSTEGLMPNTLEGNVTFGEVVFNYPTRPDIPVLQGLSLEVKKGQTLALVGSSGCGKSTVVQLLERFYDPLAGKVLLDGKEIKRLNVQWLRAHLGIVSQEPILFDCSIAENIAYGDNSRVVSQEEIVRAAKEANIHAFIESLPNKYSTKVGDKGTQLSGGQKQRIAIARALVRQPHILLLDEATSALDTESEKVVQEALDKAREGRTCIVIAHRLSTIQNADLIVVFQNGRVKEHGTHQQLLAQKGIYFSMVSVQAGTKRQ

Cytochrome P450 3A4 = Cytochrome P450 3A4 (Homo sapiens, UniProt P08684); assay: Inhibition of CYP3A4 (unknown origin) using luciferin-IPA as substrate preincubated for 1 hr followed by substrate addition and measured after 1 hr by luminometer assay; format: ADME
Cytochrome P450 3A4, sequence (P08684 whole entry): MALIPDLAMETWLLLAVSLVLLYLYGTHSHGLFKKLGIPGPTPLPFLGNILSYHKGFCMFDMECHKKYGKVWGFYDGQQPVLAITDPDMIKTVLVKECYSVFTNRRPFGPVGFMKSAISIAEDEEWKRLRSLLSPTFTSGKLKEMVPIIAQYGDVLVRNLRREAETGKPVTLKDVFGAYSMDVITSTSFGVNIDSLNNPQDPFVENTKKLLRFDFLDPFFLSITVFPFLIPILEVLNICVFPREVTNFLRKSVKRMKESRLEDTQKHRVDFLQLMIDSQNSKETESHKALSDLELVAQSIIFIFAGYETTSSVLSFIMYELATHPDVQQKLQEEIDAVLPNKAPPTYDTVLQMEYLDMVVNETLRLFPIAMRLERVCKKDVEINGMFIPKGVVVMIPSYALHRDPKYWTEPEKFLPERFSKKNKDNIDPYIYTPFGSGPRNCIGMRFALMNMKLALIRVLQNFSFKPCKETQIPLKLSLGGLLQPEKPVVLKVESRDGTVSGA

K562/A02 [11] = assay: Antitumor activity against human K562/A02 cells xenografted in BALB/c nude mouse assessed as reduction in tumor volume at 20 mg/kg, ip measured upto 14 days by vernier caliper analysis; format: functional; settings: time <= 14 day
K562/A02 [12] = assay: Antitumor activity against human K562/A02 cells xenografted in BALB/c nude mouse assessed as reduction in tumor volume at 20 mg/kg, ip measured upto 14 days in presence of ADR by vernier caliper analysis; format: functional; settings: time <= 14 day
K562/A02 [13] = assay: Antitumor activity against human K562/A02 cells xenografted in BALB/c nude mouse assessed as reduction in tumor weight at 20 mg/kg, ip measured upto 14 days in presence of ADR by vernier caliper analysis; format: functional, organism-based; settings: time <= 14.0 day

Row | SMILES | IC50 (K562/A02 [1]) | Ratio IC50 (K562/A02 [2]) | Ratio IC50 (K562/A02 [3]) | further results
1 | COc1cc2c(c3c1OCO3)-c1c(cc(OC)c3c1OCO3)CN(c1ccc(CCN3CCOCC3)cc1)C2 | 6.57 µM | 16.7 |  | 
2 | COc1ccc2c(c1)CCN(CCCN1Cc3cc(OC)c4c(c3-c3c(cc(OC)c5c3OCO5)C1)OCO4)C2 | 5.31 µM |  | 1.67 | 
3 | COc1cc2c(cc1OC)CN(CCCCCCN1Cc3cc(OC)c4c(c3-c3c(cc(OC)c5c3OCO5)C1)OCO4)CC2 | 2.04 µM |  | 8.24 | 
4 | COc1cc2c(c3c1OCO3)-c1c(cc(OC)c3c1OCO3)CN(c1ccc(CN3CCCCC3)cc1)C2 | 19.3 µM | 113.14 | 21.82 | 
5 | COc1cc2c(cc1OC)CN(CCN1Cc3cc(OC)c4c(c3-c3c(cc(OC)c5c3OCO5)C1)OCO4)CC2 | 7.78 µM | 4.29 |  | 
6 | COc1cccc2c1C(=O)c1c(O)c3c(c(O)c1C2=O)C[C@@](O)(C(=O)CO)C[C@@H]3O[C@H]1C[C@H](N)[C@H](O)[C@H](C)O1.Cl [DOXORUBICIN HYDROCHLORIDE] | 2.4 µM |  |  | Activity (K562/A02 [4]): 526.45 mm3; IC50 (K562 [5]): 0.001 µM
7 | COc1ccc2c(c1)CCN(CCc1ccc(N3Cc4cc(OC)c5c(c4-c4c(cc(OC)c6c4OCO6)C3)OCO5)cc1)C2 | > 100 µM | 8.61 |  | 
8 | COc1ccc2c(c1)CCN(CCN1Cc3cc(OC)c4c(c3-c3c(cc(OC)c5c3OCO5)C1)OCO4)C2 | 5.1 µM |  | 4.87 | 
9 | COc1cc2c(cc1OC)CN(CCc1ccc(N3Cc4cc(OC)c5c(c4-c4c(cc(OC)c6c4OCO6)C3)OCO5)cc1)CC2 | 95.4 µM | 93.17 | 93.17 | EC50 (K562/A02 [6]): 0.0487 µM; Activity (K562/A02 [7]): Dose-Dependent Effect; Activity (K562 [8]): Active; Activity (K562/A02 [9]): inactive; Activity [10]: Active; IC50 (Cytochrome P450 3A4): 2.61 µM; Activity (K562/A02 [11]): 525.75 mm3; Activity (K562/A02 [12]): 158.27 mm3; Activity (K562/A02 [13]): Active
10 | COc1cc2c(c3c1OCO3)-c1c(cc(OC)c3c1OCO3)CN(c1ccc(CCN3CCNCC3)cc1)C2 | 4.63 µM |  | 14.23 | 
11 | COc1cc2c(cc1OC)CN(Cc1ccc(N3Cc4cc(OC)c5c(c4-c4c(cc(OC)c6c4OCO6)C3)OCO5)cc1)CC2 | 13.6 µM | 374.09 | 46.82 | 
12 | COc1cc2c(cc1OC)CN(CCc1ccccc1N1Cc3cc(OC)c4c(c3-c3c(cc(OC)c5c3OCO5)C1)OCO4)CC2 | > 100 µM | 0.85 |  | 
13 | COc1cc2c(cc1OC)CN(CCCN1Cc3cc(OC)c4c(c3-c3c(cc(OC)c5c3OCO5)C1)OCO4)CC2 | 16.6 µM | 2.01 |  | 
14 | COc1cc2c(c3c1OCO3)-c1c(cc(OC)c3c1OCO3)CN(CCc1ccc3c(c1)OCO3)C2 |  | 20.58 | 12.78 | EC50 (K562/A02 [6]): 0.122 µM
15 | COc1cc2c(c3c1OCO3)-c1c(cc(OC)c3c1OCO3)CN(c1ccc(CCN3CCCCC3)cc1)C2 | 3.21 µM |  | 12.52 | 
16 | COc1ccc2c(c1)CCN(CCCCCCN1Cc3cc(OC)c4c(c3-c3c(cc(OC)c5c3OCO5)C1)OCO4)C2 | > 100 µM | 4.23 |  | 
17 | COc1ccc(C(=O)Nc2ccccc2C(=O)Nc2ccc(CCN3CCc4cc(OC)c(OC)cc4C3)cc2)cc1OC | 9.08 µM | 81.9 |  | EC50 (K562/A02 [6]): 0.0303 µM
